Test results reported in the supplement of paper PMC11061612.

How the values were obtained:
Gefitinib = compound: COc1cc2ncnc(Nc3ccc(F)c(Cl)c3)c2cc1OCCCN1CCOCC1 [Gefitinib]; details: max 10 µM
Procedure, shortened: (§1)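 Viability was measured with CellTiter-Glo 2.0 luminescence after 72 hours of dosing at a final DMSO of typically 0.2%, and scaled between blank-well and DMSO-well means. Beforehand, cancer cell lines sat 24 hours at 37°C and 5% CO2 in 1536-well plates in 7.5 μl DMEM/F12 or RPMI with 10% FBS. A non-linear mixed effects model fitted two-parameter logistic curves to the dose responses. The single-agent IC50 comes from these fits.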

Palbociclib = compound: CC(=O)c1c(C)c2cnc(Nc3ccc(N4CCNCC4)cn3)nc2n(C2CCCC2)c1=O [Palbociclib]; details: max 10 µM
Procedure, shortened: as §1

AZD2811 = compound: CCN(CCO)CCCOc1ccc2c(Nc3cc(CC(=O)Nc4cccc(F)c4)[nH]n3)ncnc2c1 [AZD2811]; details: max 1 µM
Procedure, shortened: as §1

Dasatinib = compound: CC1=C(C(=CC=C1)Cl)NC(=O)C2=CN=C(S2)NC3=CC(=NC(=N3)C)N4CCN(CC4)CCO [Dasatinib]; details: max 2 µM
Procedure, shortened: as §1

AZD5991 = compound: Cc1c2c(nn1C)CSCc1cc(n(C)n1)CSc1cc(c3ccccc3c1)OCCCc1c(C(=O)O)n(C)c3c-2c(Cl)ccc13 [AZD5991]; details: max 1 µM
Procedure, shortened: as §1

SN-38 = compound: CCc1c2c(nc3ccc(O)cc13)-c1cc3c(c(=O)n1C2)COC(=O)[C@]3(O)CC [SN-38]; details: max 0.3 µM
Procedure, shortened: as §1

Savolitinib = compound: C[C@@H](c1ccc2nccn2c1)n1nnc2ncc(-c3cnn(C)c3)nc21 [Savolitinib]; details: max 1 µM
Procedure, shortened: as §1

AZD0156 = compound: CN(C)CCCOc1ccc(-c2ccc3ncc4c(c3c2)n(C2CCOCC2)c(=O)n4C)cn1 [AZD0156]
Procedure, shortened: as §1

Doxorubicin = compound: COc1cccc2c1C(=O)c1c(O)c3c(c(O)c1C2=O)C[C@@](O)(C(=O)CO)C[C@@H]3O[C@H]1C[C@H](N)[C@H](O)[C@H](C)O1 [Doxorubicin]; details: max 1 µM
Procedure, shortened: as §1

AZD4320 = compound: CN(CC[C@H](CSC1=CC=CC=C1)NC2=C(C=C(C=C2)S(=O)(=O)NC(=O)C3=CC=C(C=C3)N4CCC(CC4)[C@H](C5=CC=CC=C5C6=CC=C(C=C6)Cl)O)S(=O)(=O)C(F)(F)F)CCO [AZD4320]; details: max 1 µM
Procedure, shortened: as §1

AZD8186 = compound: C[C@@H](Nc1cc(F)cc(F)c1)c1cc(C(=O)N(C)C)cc2c(=O)cc(N3CCOCC3)oc12 [AZD8186]; details: max 3 µM
Procedure, shortened: as §1

AZD7648 = compound: Cc1cc2ncnn2cc1Nc1ncc2c(n1)n(C1CCOCC1)c(=O)n2C [AZD7648]; details: max 10 µM
Procedure, shortened: as §1

Trametinib = compound: CC(=O)Nc1cccc(-n2c(=O)n(C3CC3)c(=O)c3c(Nc4ccc(I)cc4F)n(C)c(=O)c(C)c32)c1 [Trametinib]; details: max 1 µM
Procedure, shortened: as §1

AZD5153 = compound: COc1nnc2ccc(N3CCC(c4ccc(OCCN5CCN(C)C(=O)[C@H]5C)cc4)CC3)nn12 [AZD5153]; details: max 1 µM
Procedure, shortened: as §1

Crizotinib = compound: C[C@@H](Oc1cc(-c2cnn(C3CCNCC3)c2)cnc1N)c1c(Cl)ccc(F)c1Cl [Crizotinib]; details: max 10 µM
Procedure, shortened: as §1

Prexasertib = compound: COc1cccc(OCCCN)c1-c1cc(Nc2cnc(C#N)cn2)n[nH]1 [Prexasertib]; details: max 1 µM
Procedure, shortened: as §1

AZD1390 = compound: CC(C)n1c(=O)n(C)c2cnc3cc(F)c(-c4ccc(OCCCN5CCCCC5)nc4)cc3c21 [AZD1390]; details: max 0.3 µM
Procedure, shortened: as §1

Lapatinib = compound: CS(=O)(=O)CCNCc1ccc(-c2ccc3ncnc(Nc4ccc(OCc5cccc(F)c5)c(Cl)c4)c3c2)o1 [Lapatinib]; details: max 10 µM
Procedure, shortened: as §1

Venetoclax = compound: CC1(C)CCC(CN2CCN(c3ccc(C(=O)NS(=O)(=O)c4ccc(NCC5CCOCC5)c([N+](=O)[O-])c4)c(Oc4cnc5[nH]ccc5c4)c3)CC2)=C(c2ccc(Cl)cc2)C1 [Venetoclax]; details: max 1 µM
Procedure, shortened: as §1

Olaparib = compound: O=C(c1cc(Cc2n[nH]c(=O)c3ccccc23)ccc1F)N1CCN(C(=O)C2CC2)CC1 [Olaparib]; details: max 10 µM
Procedure, shortened: as §1

SG3199 = compound: CC1=CN2[C@@H](C1)C=NC3=CC(=C(C=C3C2=O)OC)OCCCCCOC4=C(C=C5C(=C4)N=C[C@@H]6CC(=CN6C5=O)C)OC [SG3199]; details: max 0.001 µM
Procedure, shortened: as §1

Selumetinib = compound: Cn1cnc2c(F)c(Nc3ccc(Br)cc3Cl)c(C(=O)NOCCO)cc21 [Selumetinib]; details: max 10 µM
Procedure, shortened: as §1

Capivasertib = compound: C1CN(CCC1(C(=O)N[C@@H](CCO)C2=CC=C(C=C2)Cl)N)C3=NC=NC4=C3C=CN4 [Capivasertib]; details: max 10 µM
Procedure, shortened: as §1

AZD6738 = compound: C[C@@H]1COCCN1C2=NC(=NC(=C2)C3(CC3)[S@](=N)(=O)C)C4=C5C=CNC5=NC=C4 [AZD6738]; details: max 10 µM
Procedure, shortened: as §1

Taselisib = compound: Cc1nc(-c2cn3c(n2)-c2ccc(-c4cnn(C(C)(C)C(N)=O)c4)cc2OCC3)n(C(C)C)n1 [Taselisib]; details: max 10 µM
Procedure, shortened: as §1

AZD1775 = compound: C=CCn1c(=O)c2cnc(Nc3ccc(N4CCN(C)CC4)cc3)nc2n1-c1cccc(C(C)(C)O)n1 [AZD1775]
Procedure, shortened: as §1

Alisertib = compound: COc1cc(Nc2ncc3c(n2)-c2ccc(Cl)cc2C(c2c(F)cccc2OC)=NC3)ccc1C(=O)O [Alisertib]; details: max 10 µM
Procedure, shortened: as §1

Cell Line	IC50, cell viability 72 h (Gefitinib)	IC50, cell viability 72 h (Palbociclib)	IC50, cell viability 72 h (AZD2811)	IC50, cell viability 72 h (Dasatinib)	IC50, cell viability 72 h (AZD5991)	IC50, cell viability 72 h (SN-38)	IC50, cell viability 72 h (Savolitinib)	IC50, cell viability 72 h (AZD0156; max 3 µM)	IC50, cell viability 72 h (Doxorubicin)	IC50, cell viability 72 h (AZD4320)	IC50, cell viability 72 h (AZD8186)	IC50, cell viability 72 h (AZD7648)	IC50, cell viability 72 h (Trametinib)	IC50, cell viability 72 h (AZD5153)	IC50, cell viability 72 h (Crizotinib)	IC50, cell viability 72 h (Prexasertib)	IC50, cell viability 72 h (AZD1390)	IC50, cell viability 72 h (Lapatinib)	IC50, cell viability 72 h (Venetoclax)	IC50, cell viability 72 h (Olaparib)	IC50, cell viability 72 h (SG3199)	IC50, cell viability 72 h (Selumetinib)	IC50, cell viability 72 h (Capivasertib)	IC50, cell viability 72 h (AZD6738)	IC50, cell viability 72 h (Taselisib)	IC50, cell viability 72 h (AZD1775; max 3 µM)	IC50, cell viability 72 h (Alisertib)	IC50, cell viability 72 h (AZD0156; max 1 µM)	IC50, cell viability 72 h (AZD1775; max 1 µM)
NB1 (Neuroblastoma)	> 10000 nM	> 10000 nM	186 nM	> 2000 nM	> 1000 nM	24 nM	> 1000 nM	> 3000 nM	> 1000 nM	> 1000 nM	> 3000 nM	> 10000 nM	> 1000 nM	> 1000 nM	628 nM	184 nM	> 300 nM	> 10000 nM	> 1000 nM	> 10000 nM	> 1 nM	> 10000 nM	5180 nM	4730 nM	1200 nM	1360 nM	> 10000 nM		
P32-ISH (Burkitt's Lymphoma)	> 10000 nM	6150 nM	77 nM	> 2000 nM	50.1 nM	1.82 nM	> 1000 nM	> 3000 nM	303 nM	> 1000 nM	> 3000 nM	> 10000 nM	> 1000 nM	136 nM	2270 nM	5.37 nM	> 300 nM	6900 nM	> 1000 nM	> 10000 nM	> 1 nM	> 10000 nM	8020 nM	2600 nM	8180 nM	218 nM	20 nM		
MM1S (Plasma Cell Myeloma)	> 10000 nM	> 10000 nM	> 1000 nM	> 2000 nM	325 nM	10.1 nM	> 1000 nM	1690 nM	459 nM	153 nM	> 3000 nM	> 10000 nM	> 1000 nM	347 nM	6080 nM	30.1 nM	> 300 nM	> 10000 nM	> 1000 nM	> 10000 nM	> 1 nM	> 10000 nM	545 nM	9520 nM	207 nM	720 nM	> 10000 nM		
NCI-H1963 (Small Cell Lung Carcinoma)	> 10000 nM	6900 nM	36.1 nM	> 2000 nM	> 1000 nM	36.7 nM	> 1000 nM		830 nM	15.2 nM	> 3000 nM	> 10000 nM	> 1000 nM	99.3 nM	3040 nM	44.3 nM	> 300 nM	> 10000 nM	614 nM	> 10000 nM	> 1 nM	8820 nM	> 10000 nM	2730 nM	9650 nM		208 nM	> 1000 nM	525 nM
